Measurements as given in paper PMC9605737, “Identification of 6ω-cyclohexyl-2-(phenylamino carbonylmethylthio)pyrimidin-4(3H)-ones targeting the ZIKV NS5 RNA dependent RNA polymerase” (Frontiers in Chemistry, 2022).
Like-named read-outs stand apart in the source and are kept apart here.

Tests used:
[1] = MTT cytotoxicity assay in Vero cells; type: cell-based, African green monkey; conditions: African green monkey, triplicate, >200 = highest soluble concentration not reaching 50% cytotoxicity
Protocol: (§1) MTT assay was used to detect the toxicity of the compound. Cells were seeded in 96-well plates and cultured overnight. Compounds with different concentrations were added and incubated for 96 h. Then, 20 μl of 5 mg/ml MTT (Sigma-Aldrich, United States) solution was added to each well and kept at 37°C for 4 h. Subsequently, 100 μl of 12% SDS-50% DMF (Sigma-Aldrich, United States) solution was added and incubated overnight at 37°C. After the crystalline formamidine was completely dissolved, the optical density (OD) value was measured using a microplate reader (BioTek, United States) with a wavelength of 570 nm and a reference wavelength of 630 nm.
(§2) The 50% effective concentration (EC50) and 50% cytotoxic concentration (CC50) of the compound were calculated according to the Reed and Muench method, inhibition rate of ZIKV RNA yield- [(1-drug treatment/positive control) × 100]. The data and graphs were processed using GraphPad Prism8 software, expressed as mean ± standard deviation (Mean ± SD), comparison between groups using ANOVA, p < 0.05 was considered statistically significant.

ZIKV = assay: Plaque assay, anti-ZIKV activity in Vero cells; type: cell-based, Zika virus; conditions: for EC50: read-out: EC50 (anti-ZIKV activity, plaque formation)
Protocol: Initially, the novel acetylarylamine-S-DACOs 4a-z were tested for their cytotoxicity and anti-ZIKV activity in Vero cells by plaque formation according to previously detailed procedure ([Xu et al., 2017]).
Vero cells were inoculated in a 12-well plate at 3 × 10^5 cells/ml and cultured overnight, the medium was discarded and cells were washed with PBS, then the ZIKV (MOI = 0.5) was added to infect at 37°C for 2 h. The cells were washed with PBS, and then a mixture of DMEM supplemented with 4% FBS and 2% low-melting agarose (Amresco, United States) was overlaid on the cells. Next, the cells were fixed with 4% paraformaldehyde for 15 min at 5d post-infection (hpi), washed twice with PBS and stained with 0.8% crystal violet for 10 min. Finally, an enzyme-linked fluorescence spot spectrometer (CTL, United States) was used for image acquisition.

Vero cells = assay: MTT cytotoxicity assay in Vero cells; type: cell-based, African green monkey; conditions: 96 h, triplicate, >200 = highest soluble concentration not reaching 50% cytotoxicity
Protocol: as §1, §2

[2] = Figure 3; ref Wu et al. (2017); cited from earlier work
HCV = tested on: HCV; set-up: method as in Wu et al. (2017); conditions: Figure 3; ref Wu et al. (2017); read-out: EC50 (anti-HCV); cited from earlier work
ZIKV RdRp = target: T1, ZIKV RdRp (Zika virus, UniProt A0A024B7W1); set-up: method as in Sáez-Álvarez et al., 2019; conditions: positive control drug; ref Sáez-Álvarez et al., 2019; cited from earlier work
T1 construct: we expressed and purified ZIKV RdRp domain; made in house; host or cells: Escherichia coli BL21 (DE3)

[3] = Zika virus, plaque assay, independently in triplicate
[4] = plaque assay, independently in triplicate

T1 sequence (A0A024B7W1 2793-3423): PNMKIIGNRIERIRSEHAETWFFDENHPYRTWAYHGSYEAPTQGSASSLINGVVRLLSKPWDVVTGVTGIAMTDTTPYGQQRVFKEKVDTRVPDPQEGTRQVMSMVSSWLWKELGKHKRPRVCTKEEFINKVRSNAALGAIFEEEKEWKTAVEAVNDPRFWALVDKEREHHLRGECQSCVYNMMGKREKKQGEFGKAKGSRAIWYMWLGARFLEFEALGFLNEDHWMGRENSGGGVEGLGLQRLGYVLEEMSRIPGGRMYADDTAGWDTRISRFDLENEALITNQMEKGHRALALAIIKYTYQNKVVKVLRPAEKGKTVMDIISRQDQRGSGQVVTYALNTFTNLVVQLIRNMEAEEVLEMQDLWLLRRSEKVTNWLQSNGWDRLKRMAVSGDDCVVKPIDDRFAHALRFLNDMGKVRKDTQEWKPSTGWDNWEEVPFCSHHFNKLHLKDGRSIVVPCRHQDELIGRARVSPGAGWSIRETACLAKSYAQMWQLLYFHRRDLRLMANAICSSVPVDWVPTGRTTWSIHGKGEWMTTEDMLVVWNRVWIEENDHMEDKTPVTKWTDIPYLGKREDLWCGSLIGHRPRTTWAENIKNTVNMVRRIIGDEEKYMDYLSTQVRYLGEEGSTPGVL

EC50 (ZIKV; [3]) [µM]	melting point [°C]	Compound	CC50 at 96 h [1] [µM]	also measured
> 50		CCc1c(C2CCCCC2)nc(SCC(=O)Nc2ccccc2OC)[nH]c1=O [Compound 4a, 2-[(4-cyclohexyl-5-ethyl-6-oxo-1,6-dihydropyrimidin-2-yl)thio]-N-(2-methoxyphenyl)acetamide]	> 200	
> 50	207 to 209	CCc1c(C2CCCCC2)nc(SCC(=O)Nc2cccc(OC)c2)[nH]c1=O [Compound 4c, 2-[(4-cyclohexyl-5-ethyl-6-oxo-1,6-dihydropyrimidin-2-yl)thio]-N-(3-methoxyphenyl)acetamide]	109 ± 3.19	
> 50		CCc1c(C2CCCCC2)nc(SCC(=O)Nc2ccc(OC)cc2)[nH]c1=O [Compound 4e, 2-[(4-cyclohexyl-5-ethyl-6-oxo-1,6-dihydropyrimidin-2-yl)thio]-N-(4-methoxyphenyl)acetamide]	> 200	
16.3 ± 1.31	206 to 208	CCc1c(C2CCCCC2)nc(SCC(=O)Nc2ccccc2F)[nH]c1=O [Compound 4g, 2-[(4-cyclohexyl-5-ethyl-6-oxo-1,6-dihydropyrimidin-2-yl)thio]-N-(2-fluorophenyl)acetamide]	> 200	SI (selectivity index, CC50/EC50 ratio) (ZIKV): >12.27
19.4 ± 0.38	184 to 187	CCc1c(C2CCCCC2)nc(SCC(=O)Nc2cccc(F)c2)[nH]c1=O [Compound 4i, 2-[(4-cyclohexyl-5-ethyl-6-oxo-1,6-dihydropyrimidin-2-yl)thio]-N-(3-fluorophenyl)acetamide]	> 200	SI (selectivity index, CC50/EC50 ratio) (ZIKV): >10.33
> 50	273 to 274	CCc1c(C2CCCCC2)nc(SCC(=O)Nc2ccc(F)cc2)[nH]c1=O [Compound 4k, 2-[(4-cyclohexyl-5-ethyl-6-oxo-1,6-dihydropyrimidin-2-yl)thio]-N-(4-fluorophenyl)acetamide]	> 200	
> 50	227 to 229	CCc1c(C2CCCCC2)nc(SCC(=O)Nc2ccc(F)cc2F)[nH]c1=O [Compound 4s, 2-[(4-cyclohexyl-5-ethyl-6-oxo-1,6-dihydropyrimidin-2-yl)thio]-N-(2,4-difluorophenyl)acetamide]	> 200	
> 50	190 to 192	CCc1c(C2CCCCC2)nc(SCC(=O)Nc2cc(F)ccc2F)[nH]c1=O [Compound 4u, 2-[(4-cyclohexyl-5-ethyl-6-oxo-1,6-dihydropyrimidin-2-yl)thio]-N-(2,5-difluorophenyl)acetamide]	> 200	
	182 to 183	CCc1c(CC2CCCCC2)nc(SCC(=O)Nc2cc(F)ccc2OC)[nH]c1=O [Compound 4z, 2-{[4-(cyclohexylmethyl)-5-ethyl-6-oxo-1,6-dihydropyrimidin-2-yl]thio}-N-(5-fluoro-2-methoxyphenyl)acetamide]		CC50 (Vero cells): > 200 µM; EC50 (anti-ZIKV activity, plaque formation) (ZIKV; [4]): did not show activity; EC50 (ZIKV; [4]): > 50 µM
48.9 ± 3.42		NC(=O)c1ncn([C@@H]2O[C@H](CO)[C@@H](O)[C@H]2O)n1 [Ribavirin, reference compound]	> 200	SI (selectivity index, CC50/EC50 ratio) (ZIKV): >4.09
		CCc1c(CC2CCCCC2)nc(SCC(=O)C(O)c2ccc(F)cc2)[nH]c1=O (stereo not shown) [compound B, reference compound]		CC50 [2]: 196 µM; EC50 (HCV): 2.02 µM
		Heparin		inhibition of ZIKV RdRp activity (ZIKV RdRp): significantly inhibited
